Measurements: BindingDB's records for doi:10.1021/acs.jmedchem.1c00110 (Korea Institute of Science and Technology, 2021)

Biological target: 5-hydroxytryptamine receptor 7 (Homo sapiens, UniProt P34969)
Experiment: Displacement of [3H] D-lysergic acid diethylamide from 5-HT7R (unknown origin) transfected in HEK293 cells incubated for 1.5 hrs by microbeta scintillation counter analysis

Sequence of 5-hydroxytryptamine receptor 7 (P34969 whole entry): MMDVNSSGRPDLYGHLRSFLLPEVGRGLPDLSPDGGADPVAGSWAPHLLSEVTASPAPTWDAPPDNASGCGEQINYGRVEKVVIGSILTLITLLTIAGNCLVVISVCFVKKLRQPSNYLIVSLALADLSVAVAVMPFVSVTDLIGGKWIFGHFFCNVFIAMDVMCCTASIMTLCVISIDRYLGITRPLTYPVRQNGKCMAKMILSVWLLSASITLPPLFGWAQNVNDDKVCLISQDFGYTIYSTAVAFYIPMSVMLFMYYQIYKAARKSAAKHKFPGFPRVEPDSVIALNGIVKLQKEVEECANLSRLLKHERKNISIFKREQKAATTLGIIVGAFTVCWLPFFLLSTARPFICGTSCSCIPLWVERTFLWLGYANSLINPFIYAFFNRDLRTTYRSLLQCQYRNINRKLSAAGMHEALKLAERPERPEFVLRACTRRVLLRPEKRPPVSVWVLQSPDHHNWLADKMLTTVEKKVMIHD

SMILES	Ki
CNCCc1ccc(Cl)c(-c2ccccc2OC)c1	2.8 nM
CCNCCc1ccc(Cl)c(-c2ccccc2OC)c1	1.58 nM
